These results are taken from patent US10577332B2, “Tetrazole derivatives” (Hoffmann-La Roche Inc., priority 2015, dated 2020).

Molecules are shown by their SMILES.

Data set [1] has as its target T1, human EAAT3 (Homo sapiens, UniProt P43005).
T1 construct: expressed in transfected cells
T1 sequence (P43005 1-524): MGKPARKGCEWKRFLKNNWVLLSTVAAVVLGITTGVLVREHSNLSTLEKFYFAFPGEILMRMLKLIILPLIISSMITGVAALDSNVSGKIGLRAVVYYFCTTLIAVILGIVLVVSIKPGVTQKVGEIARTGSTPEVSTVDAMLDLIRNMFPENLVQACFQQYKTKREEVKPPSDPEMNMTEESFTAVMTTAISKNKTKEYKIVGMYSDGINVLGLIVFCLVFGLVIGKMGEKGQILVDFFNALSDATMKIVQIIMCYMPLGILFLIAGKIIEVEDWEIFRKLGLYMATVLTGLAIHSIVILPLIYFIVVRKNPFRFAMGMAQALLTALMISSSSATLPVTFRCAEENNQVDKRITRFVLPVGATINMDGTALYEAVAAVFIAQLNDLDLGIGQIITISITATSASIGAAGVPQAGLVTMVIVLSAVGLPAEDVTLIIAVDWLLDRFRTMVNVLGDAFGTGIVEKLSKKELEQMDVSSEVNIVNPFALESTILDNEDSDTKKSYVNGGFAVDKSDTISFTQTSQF
As to the kind of experiment: FLIPR Membrane Potential (FMP) assay. It counts as cell-based. The settings on record: HEK-293 cells stably expressing human EAAT3; antagonist applied 15 min before L-glutamate at EC80; Kb by Cheng-Prusoff from IC50. As to the method:
The FLIPR Membrane Potential (FMP) Assay
HEK-293 cells stably expressing human EAAT3 were seeded at 55 000 cells/well in growth medium (DMEM glutamate free (Invitrogen 11960-044), 1% Pen Strep (10 ml/l GIBCO BRL No 15140-023), 10% FCS non dialysed heat inactivated, 5 mg/l puromycin) in poly-D-lysine treated 96-well black microtiter plates with clear-bottom. After 24 h, the growth medium was removed and 100 μl/well of Krebs buffer (140 mM NaCl, 4.7 mM KCl, 2.5 mM CaCl2, 1.2 mM MgCl2, 11 mM HEPES, 10 mM D-glucose, pH=7.4) added. The cells were then loaded by adding 100 μl/well FMP assay dye (FLIPR Membrane Potential assay reagent, Molecular Devices). The 96-well plates were then incubated at 37° C. for 1 h. The depolarization of the cells will cause more dye to enter in the cells, where it will bind to intracellular proteins and lipids and cause an increase in the fluorescence signal. Antagonist potency at human EAAT3 was determined by using L-glutamate as agonist at a concentration which gives 80% of the maximum response. The antagonists were applied 15 min before the application of the agonist L-glutamate. The assays were performed at room temperature and measurements done by using a Fluorometric Imaging Plate Reader (FLIPR, Molecular Devices) and filter #2. Responses were measured as peak increase in fluorescence minus basal (i.e. fluorescence without addition of L-glutamate). Kb was determined using the Cheng-Prusoff equation Kb=IC50/[1+(A/EC50)], where IC50 is the concentration of the antagonist producing 50% inhibition, A is the concentration of the agonist against which the IC50 is being determined (at EC80) and EC50 is the concentration of the agonist producing 50% […].

In general, melting point refers to the temperature of the solid-liquid transition. Usually Kb stands for the affinity of an antagonist, worked out from how it opposes an agonist. The low end stands for a more potent antagonist, the high end for a less potent antagonist. For the compound `CC(C)(NC(=O)c1cc(-c2ccc(Cl)cc2)cc(-n2cnnn2)c1)C(F)(F)F` [Example 41, 3-(4-Chlorophenyl)-5-(tetrazol-1-yl)-N-(1,1,1-trifluoro-2-methylpropan-2-yl)-benzamide], the melting point stood at 187 °C. The Kb in data set [1] came to 350 nM.

The compound `CCC(C)(C)NC(=O)c1cc(-c2ccc(Cl)cc2)cc(-n2nnnc2C(C)C)c1` [Example 42, 3-(4-Chlorophenyl)-N-(2-methylbutan-2-yl)-5-(5-propan-2-yltetrazol-1-yl)-benzamide] had a melting point of 85 °C. The compound also showed a Kb in data set [1] of 160 nM.

`CC(C)c1nnnn1-c1cc(C(=O)NC(C)(C)C)cc(-c2ccc(Cl)cc2)c1` [Example 43, N-tert-Butyl-3-(4-chlorophenyl)-5-(5-propan-2-yltetrazol-1-yl)-benzamide]: the melting point came out at 90 °C. In data set [1], this compound gave a Kb of 89 nM.

On to `CC(C)c1nnnn1-c1cc(C(=O)NC(C)(C)C2CC2)cc(-c2ccc(Cl)cc2)c1` [Example 44, 3-(4-Chlorophenyl)-N-(2-cyclopropylpropan-2-yl)-5-(5-propan-2-yltetrazol-1-yl)-benzamide], for which the melting point was determined as 83 °C. The Kb in data set [1] worked out at 210 nM.

On to `CCC(C)(C)NC(=O)c1cc(-c2ccc(C(F)(F)F)cc2)cc(-n2nnnc2C(C)C)c1` [Example 46, N-(2-Methylbutan-2-yl)-3-(5-propan-2-yltetrazol-1-yl)-5-[4-(trifluoro-methyl)-phenyl]-benzamide], for which the melting point is 89 °C. This compound also gave a Kb in data set [1] of 190 nM.

Take `CC(C)c1nnnn1-c1cc(C(=O)NC(C)(C)C)cc(-c2ccc(C(F)(F)F)cc2)c1` [Example 47, N-tert-Butyl-3-(5-propan-2-yltetrazol-1-yl)-5-[4-(trifluoromethyl)-phenyl]-benzamide]: the melting point was determined as 92 °C. The Kb in data set [1] was found to be 270 nM.

`CC(C)c1nnnn1-c1cc(C(=O)NC(C)(C)C2CC2)cc(-c2ccc(C(F)(F)F)cc2)c1` [Example 48, N-(2-Cyclopropylpropan-2-yl)-3-(5-propan-2-yltetrazol-1-yl)-5-[4-(trifluoromethyl)phenyl]benzamide] came in with a melting point of 90 °C. In data set [1], this compound registered a Kb of 420 nM.

The compound `CC(C)c1nnnn1-c1cc(C(=O)NC(C)(C)C(F)(F)F)cc(-c2ccc(Cl)cc2)c1` [Example 52, 3-(4-Chlorophenyl)-5-(5-propan-2-yltetrazol-1-yl)-N-(1,1,1-trifluoro-2-methylpropan-2-yl)-benzamide] had a melting point of 90 °C. Further, the Kb in data set [1] worked out at 340 nM.

`CC(C)c1nnnn1-c1cc(C(=O)NC(C)(C)C(F)(F)F)cc(-c2ccc(C(F)(F)F)cc2)c1` [Example 53, 3-(5-Propan-2-yltetrazol-1-yl)-5-[4-(trifluoromethyl)-phenyl]-N-(1,1,1-trifluoro-2-methylpropan-2-yl)-benzamide]: the melting point came out at 91 °C. In data set [1], this compound gave a Kb of 480 nM.

The compound `CC(C)(NC(=O)c1cc(-c2ccc(Cl)cc2)cc(-n2nnnc2C2CC2)c1)C(F)(F)F` [Example 54, 3-(4-Chlorophenyl)-5-(5-cyclopropyltetrazol-1-yl)-N-(1,1,1-trifluoro-2-methylpropan-2-yl)-benzamide] registered a melting point of 91.5 °C. In data set [1], this compound came in with a Kb of 210 nM.

The compound `CCC(C)(C)NC(=O)c1cc(-c2ccc(Cl)cc2)cc(-n2nnnc2C2CC2)c1` [Example 55, 3-(4-Chlorophenyl)-5-(5-cyclopropyltetrazol-1-yl)-N-(2-methylbutan-2-yl)-benzamide] returned a melting point of 78 °C. Moreover, the Kb in data set [1] is 480 nM.

In turn, `CC(C)(C)NC(=O)c1cc(-c2ccc(Cl)cc2)cc(-n2nnnc2C2CC2)c1` [Example 56, N-tert-Butyl-3-(4-chlorophenyl)-5-(5-cyclopropyltetrazol-1-yl)-benzamide] had a melting point of 90 °C. The Kb in data set [1] stood at 180 nM.

In turn, `CC(C)(CO)NC(=O)c1cc(-c2ccc(Cl)cc2)cc(-n2nnnc2C2CC2)c1` [Example 58, 3-(4-Chlorophenyl)-5-(5-cyclopropyltetrazol-1-yl)-N-(1-hydroxy-2-methylpropan-2-yl)-benzamide] registered a melting point of 110 °C. In addition, the Kb in data set [1] was 360 nM.

For `CC(C)c1nnnn1-c1cc(C(=O)NC(C)(C)C(F)(F)F)cc(-c2ccc(F)cc2)c1` [Example 59, 3-(4-Fluorophenyl)-5-(5-propan-2-yltetrazol-1-yl)-N-(1,1,1-trifluoro-2-methylpropan-2-yl)-benzamide], the melting point was 80 °C. Also, the Kb in data set [1] is 310 nM.

The compound `CCC(C)(C)NC(=O)c1cc(-c2ccc(F)cc2)cc(-n2nnnc2C(C)C)c1` [Example 60, 3-(4-Fluorophenyl)-N-(2-methylbutan-2-yl)-5-(5-propan-2-yltetrazol-1-yl)-benzamide] yielded a melting point of 69 °C. The compound further returned a Kb in data set [1] of 210 nM.

With `CC(C)c1nnnn1-c1cc(C(=O)NC(C)(C)C)cc(-c2ccc(F)cc2)c1` [Example 61, N-tert-Butyl-3-(4-fluorophenyl)-5-(5-propan-2-yltetrazol-1-yl)-benzamide], the melting point stood at 85 °C. Moreover, the Kb in data set [1] stood at 230 nM.

`CC(C)c1nnnn1-c1cc(C(=O)NC(C)(C)CO)cc(-c2ccc(F)cc2)c1` [Example 62, 3-(4-Fluorophenyl)-N-(1-hydroxy-2-methylpropan-2-yl)-5-(5-propan-2-yltetrazol-1-yl)-benzamide] registered a melting point of 86.5 °C. Besides, the Kb in data set [1] came out at 550 nM.

Take `Cc1nnnn1-c1cc(C(=O)NC(C)(C)CO)cc(-c2ccc(Cl)cc2)c1` [Example 64, 3-(4-Chlorophenyl)-N-(1-hydroxy-2-methylpropan-2-yl)-5-(5-methyl-tetrazol-1-yl)-benzamide]: the melting point came out at 193 °C. This compound also came in with a Kb in data set [1] of 420 nM.

In turn, `CCC(C)(C)NC(=O)c1cc(-c2ccc(Cl)cc2)cc(-n2nnnc2C)c1` [Example 66, 3-(4-Chlorophenyl)-N-(2-methylbutan-2-yl)-5-(5-methyltetrazol-1-yl)-benzamide] came in with a melting point of 80.5 °C. In data set [1], the Kb came to 170 nM.

For `Cc1nnnn1-c1cc(C(=O)NC(C)(C)C)cc(-c2ccc(Cl)cc2)c1` [Example 67, N-tert-Butyl-3-(4-chlorophenyl)-5-(5-methyltetrazol-1-yl)-benzamide], the melting point is 98 °C. The Kb in data set [1] was 240 nM.

In turn, `CCC(C)(C)NC(=O)c1cc(-c2ccc(F)cc2)cc(-n2nnnc2C2CC2)c1` [Example 68, 3-(5-Cyclopropyltetrazol-1-yl)-5-(4-fluorophenyl)-N-(2-methylbutan-2-yl)-benzamide] registered a melting point of 74 °C. This compound also returned a Kb in data set [1] of 180 nM.

As for `CC(C)(C)NC(=O)c1cc(-c2ccc(F)cc2)cc(-n2nnnc2C2CC2)c1` [Example 69, N-tert-Butyl-3-(5-cyclopropyltetrazol-1-yl)-5-(4-fluorophenyl)-benzamide], the melting point turned out to be 82 °C. The compound further returned a Kb in data set [1] of 150 nM.

With `Cc1nnnn1-c1cc(C(=O)NC(C)(C)C(F)(F)F)cc(-c2ccc(Cl)cc2)c1` [Example 70, 3-(4-Chlorophenyl)-5-(5-methyltetrazol-1-yl)-N-(1,1,1-trifluoro-2-methylpropan-2-yl)-benzamide], the melting point was 96 °C. In data set [1], this compound came in with a Kb of 230 nM.
